Source: publication PMC4728068, “Mixture Effects of Estrogenic Pesticides at the Human Estrogen Receptor α and β” (PLoS ONE, 2016)
Values after ≈ are worked out from the molar mass of the structure shown.

Legend:
hERβ = biological target: T1, hERβ (Homo sapiens, UniProt Q92731); test: ERβ CALUX assay (U2-OS cell-based luciferase reporter gene); conditions: for estrogenic activity at the hERβ in the ERβ CALUX assay (in words): applied alone; for ERβ CALUX EC01 / ERβ CALUX EC10: single substances; for ERβ CALUX EC01: 1% effect (of 1 nM E2); for ERβ CALUX EC10: 10% effect (of 1 nM E2)
T1 construct: expressed in transfected cells; host or cells: human U2-OS cells
Protocol: (§1) The ERα and ERβ CALUX assay were performed to evaluate the effect of the test substances on the hERα and hERβ as described by van der Burg et al. [21] with slight modifications. The pesticides were tested in three independent experiments, individually and as mixtures, in triplicates in 96-well plates. DMSO was used as solvent and was present in the test medium at a maximal concentration of 0.2% v/v. Solvent controls were included in each plate. […] The same plate also contained 3 μM 17α-methyltestosterone as additional estrogenic control as well as 10 nM corticosterone as negative control. […] A prescreen, in which all test substances were tested for estrogenicity between 0.01 μM and 60 μM, was performed. The three highest test substance concentrations and controls were checked for their ability to affect cell membrane integrity by quantification of the lactate dehydrogenase leakage (LDH) with the CytoTox-ONE™ Homogeneous Membrane Integrity Assay (Promega, Madison, WI, USA), which was performed as recommended by the manufacturer. Those test substance concentrations leading to a decline of the effect after a maximum was reached as well as those leading to insolubility were excluded from further experiments.
(§2) Normalized concentration-response data from the YES, ERα and ERβ CALUX assays were analyzed by nonlinear regression after the x-axis with the test substance concentrations was log-transformed. […] All mathematical/statistical analyses were performed using R version 3.1.2 (R Foundation for Statistical Computing, Vienna, Austria).

[1] = Insolubility in the YES assay medium (turbidity at 690 nm, cell-free control plate); conditions: for solubility: kinetic from dmso stock
Description: (§3) It should be taken into account that an increased turbidity could also mask cytotoxicity.
The concentrations of the test substances to be tested were limited depending on their solubility. […] A decrease of turbidity in the YES assay was assumed to be equivalent to an inhibition of yeast cell growth.

[2] = biological target: T2, human estrogen receptor α (hERα) (Homo sapiens, UniProt P03372); test: Yeast-based estrogen screen (YES) assay, β-galactosidase reporter gene; type: cell-based; conditions: for YES EC01 / YES EC10: single substances; for YES EC01: concentration needed to elicit a 1% effect of 1 nM E2; for YES EC10: concentration needed to elicit a 10% effect of 1 nM E2
T2 construct: expressed in transfected cells
Protocol: as §3, §2

hERα [3] = biological target: T3, hERα (Homo sapiens, UniProt P03372); test: YES assay in combination with a saturating concentration of E2 (1 nM): anti-estrogenic or potentiating effects; type: cell-based, yeast; conditions: for maximum to which the effect of 1 nM E2 was enhanced: YES assay, combined with 1 nM E2, normalized to 1 nM E2; for effect when combined with 1 nM E2 in the YES assay (in words): saturating 1 nM E2
Protocol: Each pesticide and pesticide mixture was tested in quadruplicate in at least five experiments.

MCF-7 cells [4] = system: MCF-7 cells; parameters: method as in PMID 10789375; conditions: cited from earlier work
hERα [5] = biological target: T3, hERα; test: ERα CALUX assay (U2-OS cell-based luciferase reporter gene); parameters: expressed in transfected cells; host or cells: human U2-OS cells; conditions: for ERα CALUX EC01: 1% effect (of 1 nM E2); for ERα CALUX EC10: 10% effect (of 1 nM E2)
Protocol: as §1, §2

yeast cells = test: Cytotoxicity in the YES assay (decrease in optical density/turbidity at 690 nm); type: cell-based; conditions: assumed equivalent to inhibition of yeast cell growth, data not shown
miR-21 = conditions: cited from earlier work
MCF-7 cells [6] = conditions: cited from earlier work
hERα [7] = biological target: T3, hERα; conditions: in combination with 3 pM E2
MCF-7 cells [8] = conditions: with or without E2; 27 (pirimicarb), ref 11 (propamocarb); cited from earlier work
estrogen receptor = system: estrogen receptor; parameters: method as in PMID 11884232; conditions: in combination with a saturating concentration of E2; cited from earlier work

T1 sequence (Q92731 whole entry): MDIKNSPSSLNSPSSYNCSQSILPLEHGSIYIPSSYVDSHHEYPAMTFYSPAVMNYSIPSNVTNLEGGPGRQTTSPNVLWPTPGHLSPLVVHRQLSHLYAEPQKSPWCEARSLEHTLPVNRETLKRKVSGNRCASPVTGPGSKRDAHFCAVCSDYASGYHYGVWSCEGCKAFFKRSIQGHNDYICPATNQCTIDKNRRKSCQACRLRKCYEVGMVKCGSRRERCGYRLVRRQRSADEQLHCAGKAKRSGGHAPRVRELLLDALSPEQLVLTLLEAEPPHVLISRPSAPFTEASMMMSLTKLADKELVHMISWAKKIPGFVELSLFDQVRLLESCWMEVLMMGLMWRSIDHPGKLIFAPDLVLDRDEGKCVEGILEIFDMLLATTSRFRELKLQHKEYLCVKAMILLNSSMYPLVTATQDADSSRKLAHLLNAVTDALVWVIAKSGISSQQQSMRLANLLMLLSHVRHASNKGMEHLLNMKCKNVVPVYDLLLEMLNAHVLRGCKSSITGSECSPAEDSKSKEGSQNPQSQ
T2 sequence (P03372 whole entry): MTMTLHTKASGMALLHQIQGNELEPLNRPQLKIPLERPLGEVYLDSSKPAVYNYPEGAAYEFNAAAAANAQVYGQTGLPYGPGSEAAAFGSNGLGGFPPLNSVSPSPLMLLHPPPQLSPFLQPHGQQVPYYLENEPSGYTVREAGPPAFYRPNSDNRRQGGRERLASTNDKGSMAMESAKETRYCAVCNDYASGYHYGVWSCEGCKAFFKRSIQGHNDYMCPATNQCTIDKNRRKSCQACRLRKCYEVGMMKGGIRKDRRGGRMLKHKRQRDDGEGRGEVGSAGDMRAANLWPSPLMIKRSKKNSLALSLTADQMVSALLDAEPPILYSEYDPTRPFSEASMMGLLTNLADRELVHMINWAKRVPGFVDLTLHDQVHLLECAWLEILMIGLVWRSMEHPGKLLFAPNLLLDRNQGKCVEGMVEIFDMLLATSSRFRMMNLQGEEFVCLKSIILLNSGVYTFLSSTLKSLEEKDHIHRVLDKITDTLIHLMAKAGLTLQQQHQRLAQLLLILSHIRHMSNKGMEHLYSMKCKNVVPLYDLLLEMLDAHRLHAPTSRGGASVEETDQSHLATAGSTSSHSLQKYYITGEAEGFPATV
T3 sequence (P03372 whole entry): as above

## Clc1ccc(C(c2ccccc2Cl)C(Cl)(Cl)Cl)cc1 (stereo not shown) [2,4’-DDT, 2,4’-dichlorodiphenyltrichloroethane]
hERβ
  estrogenic activity at the hERβ in the ERβ CALUX assay (in words): dose-dependent estrogenic activity
  ERβ CALUX EC01: 0.055 µM
  ERβ CALUX EC10: 0.603 µM

## Clc1ccc(C(c2ccc(Cl)cc2)C(Cl)(Cl)Cl)cc1 [4,4’-DDT, 4,4’- dichlorodiphenyltrichloroethane]
hERβ
  estrogenic activity at the hERβ in the ERβ CALUX assay (in words): dose-dependent estrogenic activity
  ERβ CALUX EC01: 1.02 µM
[1]; YES assay medium
  concentrations leading to insolubility (tested in the YES assay): 50 to 500 µM

## CCOP(=S)(OCC)Oc1nc(Cl)c(Cl)cc1Cl [chlorpyrifos]
[2]
  YES EC01: 79.4 nM
hERα [3]
  maximum to which the effect of 1 nM E2 was enhanced: 1.84
MCF-7 cells [4]
  effect in MCF-7 proliferation assay compared with E2: without exceeding the effect of E2
hERα [5]; single substances
  ERα CALUX EC01: 617 nM
  ERα CALUX EC10: 3.47 µM
[1]
  solubility: 100 to 1000 µM (≈ 35.1 to 351 µg/mL)

## OC(c1ccc(Cl)cc1)(c1cncnc1)c1ccccc1Cl (stereo not shown) [fenarimol]
[2]; single substance, YES assay
  maximum effect normalized to the effect of 1 nM E2: 2.69
[2]
  YES EC01: 11700 nM
  YES EC10: 21.9 µM
hERβ
  estrogenic activity at the hERβ in the ERβ CALUX assay (in words): dose-dependent estrogenic activity
  ERβ CALUX EC01: 3.63 µM
  ERβ CALUX EC10: 13.5 µM
hERα [3]
  maximum to which the effect of 1 nM E2 was enhanced: 4.36
MCF-7 cells [4]
  effect in MCF-7 proliferation assay compared with E2: without exceeding the effect of E2
hERα [5]; single substances, ERα CALUX assay
  maximum effect relative to the effect of 0.1 nM E2: 1.17
hERα [5]; single substances
  ERα CALUX EC01: 794 nM
  ERα CALUX EC10: 2.82 µM

## CC1(C(=O)Nc2ccc(O)c(Cl)c2Cl)CCCCC1 [fenhexamid]
hERβ
  estrogenic activity at the hERβ in the ERβ CALUX assay (in words): dose-dependent estrogenic activity
  ERβ CALUX EC01: 1.17 µM
  ERβ CALUX EC10: 5.01 µM
Yeast cells
  concentrations decreasing turbidity by more than 30% in comparison to the solvent control: ≥ 500 µM
miR-21
  miR-21 expression in breast cancer cells: increase of miR-21 expression
MCF-7 cells [6]
  E2-induced cell proliferation in MCF-7 cells: inhibition of E2-induced cell proliferation
[1]
  solubility: 100 µM (≈ 30.2 µg/mL)

## N#Cc1c[nH]cc1-c1cccc2c1OC(F)(F)O2 [fludioxonil]
[2]
  YES EC01: 832 nM
  YES EC10: 26.3 µM
hERα [3]; in combination with 1 nM E2
  inhibition of the E2 effect in the YES assay: 44%
hERα [3]
  effect when combined with 1 nM E2 in the YES assay (in words): concentration-dependent anti-estrogenic effects
hERα [7]
  anti-estrogenic effect in the ERα CALUX assay (in words): an anti-estrogenic effect was not observed
miR-21
  miR-21 expression in breast cancer cells: increase of miR-21 expression
MCF-7 cells [6]
  E2-induced cell proliferation in MCF-7 cells: inhibition of E2-induced cell proliferation
hERα [5]; single substances
  ERα CALUX EC01: 363 nM
  ERα CALUX EC10: 1.26 µM
[1]
  solubility: 100 to 500 µM (≈ 24.8 to 124 µg/mL)

## Cc1nc(N(C)C)nc(OC(=O)N(C)C)c1C [pirimicarb]
[2]; applied alone
  estrogenic activity in the YES assay (in words): negative
hERα [3]
  effect when combined with 1 nM E2 in the YES assay (in words): negative
MCF-7 cells [8]
  proliferation of MCF-7 cells in the E-Screen: did not stimulate the proliferation of MCF-7 cells
Estrogen receptor
  effect in transactivation assay with MCF-7 BOS cells: induced a stronger effect
hERα [5]; applied alone
  estrogenic activity in the ERα CALUX assay (in words): negative

## CCCOC(=O)NCCCN(C)C [propamocarb]
MCF-7 cells [8]
  proliferation of MCF-7 cells in the E-Screen: did not stimulate the proliferation of MCF-7 cells
